# Experimental data taken from ChEMBL document CHEMBL5303573, “Mapping human microbiome drug metabolism by gut bacteria and their genes” (Nature, 2019).
# Test: The drug is tested on Bacteroides cellulosilyticus strain: DSM14838 for biotransformation. The drug concentrations were measured before and after a 12-h incubation by liquid-chromatography-coupled mass spectrometry (LC–MS)
# Settings: 2 µM
row,SMILES,Bacterial Biotransformation
1,C#C[C@]1(OC(C)=O)CC[C@H]2[C@@H]3CCC4=CC(=O)CC[C@@H]4[C@H]3CC[C@@]21C [NORETHINDRONE ACETATE],Compound metabolized
2,CC(CCc1ccccc1)NCC(O)c1ccc(O)c(C(N)=O)c1 (stereo not given) [LABETALOL],Compound NOT metabolized
3,C=CCN1CC[C@]23c4c5ccc(O)c4O[C@H]2C(=O)CC[C@@]3(O)[C@H]1C5 [NALOXONE],Compound NOT metabolized

# Test: The drug is tested on Clostridium sporogenes strain: ATCC15579 for biotransformation. The drug concentrations were measured before and after a 12-h incubation by liquid-chromatography-coupled mass spectrometry (LC–MS)
# Settings: 2 µM
row,SMILES,Bacterial Biotransformation
1,C#C[C@]1(OC(C)=O)CC[C@H]2[C@@H]3CCC4=CC(=O)CC[C@@H]4[C@H]3CC[C@@]21C [NORETHINDRONE ACETATE],Compound metabolized
2,CC(CCc1ccccc1)NCC(O)c1ccc(O)c(C(N)=O)c1 (stereo not given) [LABETALOL],Compound NOT metabolized
3,C=CCN1CC[C@]23c4c5ccc(O)c4O[C@H]2C(=O)CC[C@@]3(O)[C@H]1C5 [NALOXONE],Compound metabolized

# Test: The drug is tested on Providencia rettgeri strain: DSM1131 for biotransformation. The drug concentrations were measured before and after a 12-h incubation by liquid-chromatography-coupled mass spectrometry (LC–MS)
# Assay type: ADME
# Set-up: dose 2 uM, timepoint 0 vs 12 hours
# Settings: 2 µM
row,SMILES,Bacterial Biotransformation
1,C#C[C@]1(OC(C)=O)CC[C@H]2[C@@H]3CCC4=CC(=O)CC[C@@H]4[C@H]3CC[C@@]21C [NORETHINDRONE ACETATE],Compound NOT metabolized
2,CC(CCc1ccccc1)NCC(O)c1ccc(O)c(C(N)=O)c1 (stereo not given) [LABETALOL],Compound NOT metabolized
3,C=CCN1CC[C@]23c4c5ccc(O)c4O[C@H]2C(=O)CC[C@@]3(O)[C@H]1C5 [NALOXONE],Compound NOT metabolized

# Settings: anaerostipes sp., 12 h, 2 µM
# Description: The drug is tested on Anaerostipes sp. strain: fecal isolate for biotransformation. The drug concentrations were measured before and after a 12-h incubation by liquid-chromatography-coupled mass spectrometry (LC–MS)
row,SMILES,Bacterial Biotransformation
1,C#C[C@]1(OC(C)=O)CC[C@H]2[C@@H]3CCC4=CC(=O)CC[C@@H]4[C@H]3CC[C@@]21C [NORETHINDRONE ACETATE],Compound metabolized
2,CC(CCc1ccccc1)NCC(O)c1ccc(O)c(C(N)=O)c1 (stereo not given) [LABETALOL],Compound NOT metabolized
3,C=CCN1CC[C@]23c4c5ccc(O)c4O[C@H]2C(=O)CC[C@@]3(O)[C@H]1C5 [NALOXONE],Compound NOT metabolized

# Test: The drug is tested on Bifidobacterium breve strain: DSM20213 for biotransformation. The drug concentrations were measured before and after a 12-h incubation by liquid-chromatography-coupled mass spectrometry (LC–MS)
# Settings: 2 µM
row,SMILES,Bacterial Biotransformation
1,C#C[C@]1(OC(C)=O)CC[C@H]2[C@@H]3CCC4=CC(=O)CC[C@@H]4[C@H]3CC[C@@]21C [NORETHINDRONE ACETATE],Compound NOT metabolized
2,CC(CCc1ccccc1)NCC(O)c1ccc(O)c(C(N)=O)c1 (stereo not given) [LABETALOL],Compound NOT metabolized
3,C=CCN1CC[C@]23c4c5ccc(O)c4O[C@H]2C(=O)CC[C@@]3(O)[C@H]1C5 [NALOXONE],Compound NOT metabolized

# Settings: parabacteroides johnsonii, 12 h, 2 µM
# Description: The drug is tested on Parabacteroides johnsonii strain: DSM18315 for biotransformation. The drug concentrations were measured before and after a 12-h incubation by liquid-chromatography-coupled mass spectrometry (LC–MS)
row,SMILES,Bacterial Biotransformation
1,C#C[C@]1(OC(C)=O)CC[C@H]2[C@@H]3CCC4=CC(=O)CC[C@@H]4[C@H]3CC[C@@]21C [NORETHINDRONE ACETATE],Compound metabolized
2,CC(CCc1ccccc1)NCC(O)c1ccc(O)c(C(N)=O)c1 (stereo not given) [LABETALOL],Compound NOT metabolized
3,C=CCN1CC[C@]23c4c5ccc(O)c4O[C@H]2C(=O)CC[C@@]3(O)[C@H]1C5 [NALOXONE],Compound metabolized

# Test: The drug is tested on Clostridium sp. strain: fecal isolate for biotransformation. The drug concentrations were measured before and after a 12-h incubation by liquid-chromatography-coupled mass spectrometry (LC–MS)
# Settings: 2 µM
row,SMILES,Bacterial Biotransformation
1,C#C[C@]1(OC(C)=O)CC[C@H]2[C@@H]3CCC4=CC(=O)CC[C@@H]4[C@H]3CC[C@@]21C [NORETHINDRONE ACETATE],Compound metabolized
2,CC(CCc1ccccc1)NCC(O)c1ccc(O)c(C(N)=O)c1 (stereo not given) [LABETALOL],Compound NOT metabolized
3,C=CCN1CC[C@]23c4c5ccc(O)c4O[C@H]2C(=O)CC[C@@]3(O)[C@H]1C5 [NALOXONE],Compound metabolized

# Settings: bacteroides fragilis, 12 h, 2 µM
# Description: The drug is tested on Bacteroides fragilis strain: 3397 (T10) for biotransformation. The drug concentrations were measured before and after a 12-h incubation by liquid-chromatography-coupled mass spectrometry (LC–MS)
row,SMILES,Bacterial Biotransformation
1,C#C[C@]1(OC(C)=O)CC[C@H]2[C@@H]3CCC4=CC(=O)CC[C@@H]4[C@H]3CC[C@@]21C [NORETHINDRONE ACETATE],Compound metabolized
2,CC(CCc1ccccc1)NCC(O)c1ccc(O)c(C(N)=O)c1 (stereo not given) [LABETALOL],Compound NOT metabolized
3,C=CCN1CC[C@]23c4c5ccc(O)c4O[C@H]2C(=O)CC[C@@]3(O)[C@H]1C5 [NALOXONE],Compound metabolized

# Settings: bifidobacterium adolescentis, 12 h, 2 µM
# Description: The drug is tested on Bifidobacterium adolescentis strain: ATCC 15703 for biotransformation. The drug concentrations were measured before and after a 12-h incubation by liquid-chromatography-coupled mass spectrometry (LC–MS)
row,SMILES,Bacterial Biotransformation
1,C#C[C@]1(OC(C)=O)CC[C@H]2[C@@H]3CCC4=CC(=O)CC[C@@H]4[C@H]3CC[C@@]21C [NORETHINDRONE ACETATE],Compound NOT metabolized
2,CC(CCc1ccccc1)NCC(O)c1ccc(O)c(C(N)=O)c1 (stereo not given) [LABETALOL],Compound NOT metabolized
3,C=CCN1CC[C@]23c4c5ccc(O)c4O[C@H]2C(=O)CC[C@@]3(O)[C@H]1C5 [NALOXONE],Compound metabolized

# Test: The drug is tested on Enterococcus faecalis strain: V583 for biotransformation. The drug concentrations were measured before and after a 12-h incubation by liquid-chromatography-coupled mass spectrometry (LC–MS)
# Settings: 2 µM
row,SMILES,Bacterial Biotransformation
1,C#C[C@]1(OC(C)=O)CC[C@H]2[C@@H]3CCC4=CC(=O)CC[C@@H]4[C@H]3CC[C@@]21C [NORETHINDRONE ACETATE],Compound NOT metabolized
2,CC(CCc1ccccc1)NCC(O)c1ccc(O)c(C(N)=O)c1 (stereo not given) [LABETALOL],Compound NOT metabolized

# Settings: bacteroides thetaiotaomicron, 12 h, 2 µM
# Description: The drug is tested on Bacteroides thetaiotaomicron strain: VPI-5482 for biotransformation. The drug concentrations were measured before and after a 12-h incubation by liquid-chromatography-coupled mass spectrometry (LC–MS)
row,SMILES,Bacterial Biotransformation
1,C#C[C@]1(OC(C)=O)CC[C@H]2[C@@H]3CCC4=CC(=O)CC[C@@H]4[C@H]3CC[C@@]21C [NORETHINDRONE ACETATE],Compound metabolized
2,CC(CCc1ccccc1)NCC(O)c1ccc(O)c(C(N)=O)c1 (stereo not given) [LABETALOL],Compound NOT metabolized
3,C=CCN1CC[C@]23c4c5ccc(O)c4O[C@H]2C(=O)CC[C@@]3(O)[C@H]1C5 [NALOXONE],Compound metabolized

# Test: The drug is tested on Bacteroides caccae strain: ATCC43185 for biotransformation. The drug concentrations were measured before and after a 12-h incubation by liquid-chromatography-coupled mass spectrometry (LC–MS)
# Settings: 2 µM
row,SMILES,Bacterial Biotransformation
1,C#C[C@]1(OC(C)=O)CC[C@H]2[C@@H]3CCC4=CC(=O)CC[C@@H]4[C@H]3CC[C@@]21C [NORETHINDRONE ACETATE],Compound metabolized
2,CC(CCc1ccccc1)NCC(O)c1ccc(O)c(C(N)=O)c1 (stereo not given) [LABETALOL],Compound NOT metabolized

# Settings: segatella copri, 12 h, 2 µM
# Description: The drug is tested on Prevotella copri strain: DSM18205 for biotransformation. The drug concentrations were measured before and after a 12-h incubation by liquid-chromatography-coupled mass spectrometry (LC–MS)
row,SMILES,Bacterial Biotransformation
1,C#C[C@]1(OC(C)=O)CC[C@H]2[C@@H]3CCC4=CC(=O)CC[C@@H]4[C@H]3CC[C@@]21C [NORETHINDRONE ACETATE],Compound metabolized
2,CC(CCc1ccccc1)NCC(O)c1ccc(O)c(C(N)=O)c1 (stereo not given) [LABETALOL],Compound NOT metabolized
3,C=CCN1CC[C@]23c4c5ccc(O)c4O[C@H]2C(=O)CC[C@@]3(O)[C@H]1C5 [NALOXONE],Compound metabolized

# Test: The drug is tested on Blautia hansenii strain: DSM20583 for biotransformation. The drug concentrations were measured before and after a 12-h incubation by liquid-chromatography-coupled mass spectrometry (LC–MS)
# Settings: 2 µM
row,SMILES,Bacterial Biotransformation
1,C#C[C@]1(OC(C)=O)CC[C@H]2[C@@H]3CCC4=CC(=O)CC[C@@H]4[C@H]3CC[C@@]21C [NORETHINDRONE ACETATE],Compound metabolized
2,CC(CCc1ccccc1)NCC(O)c1ccc(O)c(C(N)=O)c1 (stereo not given) [LABETALOL],Compound NOT metabolized
3,C=CCN1CC[C@]23c4c5ccc(O)c4O[C@H]2C(=O)CC[C@@]3(O)[C@H]1C5 [NALOXONE],Compound metabolized

# Test: The drug is tested on Odoribacter splanchnicus strain: fecal isolate for biotransformation. The drug concentrations were measured before and after a 12-h incubation by liquid-chromatography-coupled mass spectrometry (LC–MS)
# Settings: 2 µM
row,SMILES,Bacterial Biotransformation
1,C#C[C@]1(OC(C)=O)CC[C@H]2[C@@H]3CCC4=CC(=O)CC[C@@H]4[C@H]3CC[C@@]21C [NORETHINDRONE ACETATE],Compound metabolized
2,CC(CCc1ccccc1)NCC(O)c1ccc(O)c(C(N)=O)c1 (stereo not given) [LABETALOL],Compound NOT metabolized
3,C=CCN1CC[C@]23c4c5ccc(O)c4O[C@H]2C(=O)CC[C@@]3(O)[C@H]1C5 [NALOXONE],Compound NOT metabolized

# Test: The drug is tested on Clostridium scindens strain: ATCC35704 for biotransformation. The drug concentrations were measured before and after a 12-h incubation by liquid-chromatography-coupled mass spectrometry (LC–MS)
# Settings: 2 µM
row,SMILES,Bacterial Biotransformation
1,C#C[C@]1(OC(C)=O)CC[C@H]2[C@@H]3CCC4=CC(=O)CC[C@@H]4[C@H]3CC[C@@]21C [NORETHINDRONE ACETATE],Compound NOT metabolized

# Test: The drug is tested on Escherichia coli strain: BW25113 for biotransformation. The drug concentrations were measured before and after a 12-h incubation by liquid-chromatography-coupled mass spectrometry (LC–MS)
# Settings: 2 µM
row,SMILES,Bacterial Biotransformation
1,C#C[C@]1(OC(C)=O)CC[C@H]2[C@@H]3CCC4=CC(=O)CC[C@@H]4[C@H]3CC[C@@]21C [NORETHINDRONE ACETATE],Compound metabolized
2,CC(CCc1ccccc1)NCC(O)c1ccc(O)c(C(N)=O)c1 (stereo not given) [LABETALOL],Compound NOT metabolized
3,C=CCN1CC[C@]23c4c5ccc(O)c4O[C@H]2C(=O)CC[C@@]3(O)[C@H]1C5 [NALOXONE],Compound NOT metabolized

# Test: The drug is tested on Bacteroides vulgatus strain: ATCC8482 for biotransformation. The drug concentrations were measured before and after a 12-h incubation by liquid-chromatography-coupled mass spectrometry (LC–MS)
# Settings: phocaeicola vulgatus, 2 µM
row,SMILES,Bacterial Biotransformation
1,C#C[C@]1(OC(C)=O)CC[C@H]2[C@@H]3CCC4=CC(=O)CC[C@@H]4[C@H]3CC[C@@]21C [NORETHINDRONE ACETATE],Compound metabolized
2,CC(CCc1ccccc1)NCC(O)c1ccc(O)c(C(N)=O)c1 (stereo not given) [LABETALOL],Compound NOT metabolized
3,C=CCN1CC[C@]23c4c5ccc(O)c4O[C@H]2C(=O)CC[C@@]3(O)[C@H]1C5 [NALOXONE],Compound metabolized

# Settings: parabacteroides distasonis, 12 h, 2 µM
# Description: The drug is tested on Parabacteroides distasonis strain: ATCC8503 for biotransformation. The drug concentrations were measured before and after a 12-h incubation by liquid-chromatography-coupled mass spectrometry (LC–MS)
row,SMILES,Bacterial Biotransformation
1,C#C[C@]1(OC(C)=O)CC[C@H]2[C@@H]3CCC4=CC(=O)CC[C@@H]4[C@H]3CC[C@@]21C [NORETHINDRONE ACETATE],Compound NOT metabolized
2,CC(CCc1ccccc1)NCC(O)c1ccc(O)c(C(N)=O)c1 (stereo not given) [LABETALOL],Compound NOT metabolized
3,C=CCN1CC[C@]23c4c5ccc(O)c4O[C@H]2C(=O)CC[C@@]3(O)[C@H]1C5 [NALOXONE],Compound NOT metabolized

# Test: The drug is tested on Ruminococcus lactaris strain: ATCC29176 for biotransformation. The drug concentrations were measured before and after a 12-h incubation by liquid-chromatography-coupled mass spectrometry (LC–MS)
# Settings: 2 µM
row,SMILES,Bacterial Biotransformation
1,CC(CCc1ccccc1)NCC(O)c1ccc(O)c(C(N)=O)c1 (stereo not given) [LABETALOL],Compound NOT metabolized
2,C=CCN1CC[C@]23c4c5ccc(O)c4O[C@H]2C(=O)CC[C@@]3(O)[C@H]1C5 [NALOXONE],Compound NOT metabolized
